The target of one test is T1, human GST-DYRK1A (Homo sapiens, UniProt Q13627).
T1 construct: purified human GST-DYRK1A (full length, Thermo Scientifics) enzyme; purchased Thermo Scientifics
The test is described as follows: GST-DYRK1A enzyme inhibition, ADP-Glo kinase assay. Particulars: ATP 10 μM, GST-DYRK1A full length, read-out: DYRK1 IC50. Format: biochemical. Summed up:
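Full-length human GST-DYRK1A (10 ng) with 10 μM ATP and specific substrate in 40 mM Tris-HCl pH 7.4, 20 mM MgCl2, 0.5 mg/mL BSA, 50 μM DTT, 1 h at 25 °C. ADP formation read by ADP-Glo luminescence relative to solvent control; IC50 from three data sets.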

In the next test the target is T2, human GST-CLK1 (Homo sapiens, UniProt P49759).
T2 construct: purified human GST-CLK1 (129-end, SignalChem) enzyme; purchased SignalChem
Put plainly: GST-CLK1 enzyme inhibition, ADP-Glo kinase assay. The test is classed as biochemical. The following applies: ATP 10 μM, GST-CLK1 129-end. In short, it runs like this: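 Human GST-CLK1 (129-end, 3 ng) reacted with substrate and 10 μM ATP for 1 h at 25° C in 40 mM Tris-HCl pH 7.4, 20 mM MgCl2, 0.5 mg/mL BSA, 50 μM DTT. ADP-Glo luminescence was normalised to solvent control; IC50 (nM) from 3 data sets.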

The next test has as its system MDA-MB-231 cell line. Put plainly: Inhibition of proliferation of MDA-MB-231 cancer cells (Cell Titer-Glo). The test is classed as cell-based. The following applies: Homo sapiens, 72 hours. In short, it runs like this:
(§1)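 Cells were grown in DMEM or RPMI, seeded at 2,000 cells/well and exposed to 11 threefold dilutions of compound (final 10 to 0.000169 μM) for 72 hours. Viability was read by Cell Titer-Glo luminescence after 10 min at room temperature, and GI50 was calculated from the luminescence data.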

For the next test, the system named is SHP-77. Put plainly: Inhibition of proliferation of SHP-77 cancer cells (Cell Titer-Glo). The test is classed as cell-based. Particulars: Homo sapiens, SHP77, 72 hours. As for the experimental part:
To evaluate an inhibitory effect on the proliferation of cancer cells, each of an MDA-MB-231 cell line (Korean Cell Line Bank #30026) and an MDA-MB-468 cell line as triple-negative breast cancer cell lines, and SHP-77 (ATCC #CRL-2195) as a small-cell lung cancer cell line was cultured in DMEM (HyClone #SH30243) or an RPMI medium (HyClone #SH3027.01) to analyze a cell growth rate. More specifically, a cell line was plated on a 96-well flat bottom plate (Corning #3903) at a density of 2,000 cells/100 μL per well, and then treated with 11 concentrations of the Example compound, a solution of which was diluted 3-fold so that a final concentration of the compound was 10.000000, 3.333333, 1.111111, 0.370370, 0.123457, 0.041152, 0.013717, 0.004572, 0.001524, 0.000508, and 0.000169 μM. After 72 hours, each of the culture media was treated with 100 μL of Cell Titer-Glo (Promega G7573), and then cultured at room temperature for 10 minutes. Then, a degree of luminescence was measured using a microplate reader. A GI50 value was calculated from the measured degree of luminescence using Prism (Version 8.2 GraphPad) software.

The target in the next test is LRRK2 (G2019S) (Homo sapiens, UniProt Q5S007, G2019S). The test is described as follows: LRRK2 G2019S enzyme inhibition, ADP-Glo kinase assay. The test is classed as biochemical. Set-up: purchased SignalChem L10-12GG. The following applies: ATP 25 μM. Summed up:
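Purified human LRRK2 G2019S (16 ng) with 25 μM ATP and 0.2 μg substrate, 2 h at 25° C. in Tris-HCl pH 7.4, MgCl2, BSA, DTT buffer; compounds at 12 final concentrations, 50 μM down to 0.000001024 μM. ADP-Glo luminescence versus solvent control gave IC50.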

The next test has as its system MDA-MB-468 cell line. Put plainly: Inhibition of proliferation of MDA-MB-468 cancer cells (Cell Titer-Glo). The following applies: Homo sapiens, MDA-MB-468, 72 hours. The test is classed as cell-based. In short, it runs like this:
as §1

The next test addresses LRRK2 (Homo sapiens, UniProt Q5S007). Put plainly: LRRK2 enzyme inhibition, ADP-Glo kinase assay. Particulars: ATP 10 μM. Set-up: purchased Invitrogen PR8604B. The test is classed as biochemical. In short, it runs like this:
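Purified human LRRK2 (25 ng) with 10 μM ATP and 0.2 μg substrate in 40 mM Tris-HCl pH 7.4, 20 mM MgCl2, 0.5 mg/mL BSA, 50 μM DTT, 2 h at 25° C. ADP-Glo luminescence; 12-point compound series from 50 μM final; IC50 relative to solvent control.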

SMILES strings stand for the structures.

T2 sequence (P49759 129-484 limits assumed): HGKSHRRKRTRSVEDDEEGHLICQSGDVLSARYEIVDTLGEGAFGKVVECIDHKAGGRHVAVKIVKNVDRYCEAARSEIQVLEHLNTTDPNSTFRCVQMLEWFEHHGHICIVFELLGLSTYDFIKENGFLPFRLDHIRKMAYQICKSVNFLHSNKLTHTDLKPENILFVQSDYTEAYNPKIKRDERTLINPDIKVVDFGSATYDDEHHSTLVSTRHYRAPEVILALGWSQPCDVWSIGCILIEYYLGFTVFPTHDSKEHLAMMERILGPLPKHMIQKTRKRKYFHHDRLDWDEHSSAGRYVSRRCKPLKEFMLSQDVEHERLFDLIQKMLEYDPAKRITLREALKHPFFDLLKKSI
Chain of LRRK2 (G2019S) (Q5S007 970-2527 G2019S limits assumed): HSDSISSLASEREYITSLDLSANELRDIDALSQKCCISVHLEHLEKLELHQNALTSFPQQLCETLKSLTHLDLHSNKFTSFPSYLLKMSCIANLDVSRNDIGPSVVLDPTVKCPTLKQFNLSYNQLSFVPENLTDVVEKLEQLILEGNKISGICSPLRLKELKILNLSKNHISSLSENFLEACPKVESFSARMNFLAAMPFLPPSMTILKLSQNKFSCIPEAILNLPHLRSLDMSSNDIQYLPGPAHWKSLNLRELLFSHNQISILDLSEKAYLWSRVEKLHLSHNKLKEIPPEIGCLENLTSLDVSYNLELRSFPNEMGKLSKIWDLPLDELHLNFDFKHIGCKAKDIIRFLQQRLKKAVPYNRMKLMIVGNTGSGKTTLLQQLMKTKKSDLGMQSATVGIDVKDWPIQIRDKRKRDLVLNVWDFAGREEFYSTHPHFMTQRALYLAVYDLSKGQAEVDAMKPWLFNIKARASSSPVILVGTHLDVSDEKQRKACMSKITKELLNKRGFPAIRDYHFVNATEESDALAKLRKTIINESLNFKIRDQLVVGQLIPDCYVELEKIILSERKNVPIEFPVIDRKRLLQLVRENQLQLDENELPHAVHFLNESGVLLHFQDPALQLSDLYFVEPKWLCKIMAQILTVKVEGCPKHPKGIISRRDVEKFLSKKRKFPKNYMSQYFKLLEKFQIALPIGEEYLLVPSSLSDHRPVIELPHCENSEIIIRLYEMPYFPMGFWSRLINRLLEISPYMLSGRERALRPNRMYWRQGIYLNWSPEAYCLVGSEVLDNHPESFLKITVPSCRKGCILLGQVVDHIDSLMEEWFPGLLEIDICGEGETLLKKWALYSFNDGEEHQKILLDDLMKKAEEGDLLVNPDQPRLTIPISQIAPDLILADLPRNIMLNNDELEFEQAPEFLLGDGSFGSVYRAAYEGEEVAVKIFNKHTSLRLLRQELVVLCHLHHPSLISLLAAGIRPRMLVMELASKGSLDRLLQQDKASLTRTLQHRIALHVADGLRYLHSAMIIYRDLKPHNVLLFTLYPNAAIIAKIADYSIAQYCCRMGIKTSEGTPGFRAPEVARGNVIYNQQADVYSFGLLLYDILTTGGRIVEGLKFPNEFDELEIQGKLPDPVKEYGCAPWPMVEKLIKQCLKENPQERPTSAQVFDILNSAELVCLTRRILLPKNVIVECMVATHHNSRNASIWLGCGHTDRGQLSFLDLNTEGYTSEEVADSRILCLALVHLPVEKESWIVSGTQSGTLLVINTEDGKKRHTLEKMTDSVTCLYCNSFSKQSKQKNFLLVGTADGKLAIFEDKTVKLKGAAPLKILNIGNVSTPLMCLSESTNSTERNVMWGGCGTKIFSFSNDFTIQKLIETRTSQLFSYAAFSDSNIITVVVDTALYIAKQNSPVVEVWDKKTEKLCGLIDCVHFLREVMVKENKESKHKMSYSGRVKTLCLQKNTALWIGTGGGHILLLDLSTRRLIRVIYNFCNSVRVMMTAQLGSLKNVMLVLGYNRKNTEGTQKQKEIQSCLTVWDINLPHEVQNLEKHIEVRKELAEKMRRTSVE
Chain of LRRK2 (Q5S007 970-2527 limits assumed): as the sequence (Q5S007 970-2527 G2019S limits assumed) above, with S1050G counted along it

For the molecule `COc1cc(S(=O)(=O)N2CCOCC2)ccc1Nc1nc(NCC(C)C)c2c(C(F)(F)F)c[nH]c2n1` [Example 192, N^4-isobutyl-N^2-(2-methoxy-4-(morpholinosulfonyl)phenyl)-5-(trifluoromethyl)-7H-pyrrolo[2,3-d]pyrimidine-2,4-diamine], the IC50 was 101 to 300 nM at human GST-DYRK1A and 301 to 1000 nM on human GST-CLK1. Further, the GI50 in the test with MDA-MB-231 cell line and with SHP-77 was 301 to 1000 nM in each case.

For the molecule `COc1cc(S(=O)(=O)N2CCC(N3CCOCC3)CC2)ccc1Nc1nc(NCC2CCCC2)c2c(C(F)(F)F)c[nH]c2n1` [Example 195, N^4-(cyclopentylmethyl)-N^2-(2-methoxy-4-((4-morpholinopiperidin-1-yl)sulfonyl)phenyl)-5-(trifluoromethyl)-7H-pyrrolo[2,3-d]pyrimidine-2,4-diamine], the IC50 on human GST-DYRK1A and against human GST-CLK1 was 301 to 1000 nM in each case. Also, the 50% growth inhibitory concentration (GI50) in the test on MDA-MB-231 cell line and with SHP-77 was 301 to 1000 nM throughout.

Regarding `COc1cc(S(=O)(=O)N2CCOCC2)ccc1Nc1nc(NCC2CCC2)c2c(C(F)(F)F)c[nH]c2n1` [Example 200, N^4-(cyclobutylmethyl)-N^2-(2-methoxy-4-(morpholinosulfonyl)phenyl)-5-(trifluoromethyl)-7H-pyrrolo[2,3-d]pyrimidine-2,4-diamine], the IC50 at human GST-DYRK1A and at human GST-CLK1 was 301 to 1000 nM in each case. In addition, the GI50 with MDA-MB-231 cell line and with SHP-77 was 301 to 1000 nM each time.

For the molecule `COc1cc(S(=O)(=O)N2CCOCC2)ccc1Nc1nc(NCC2CCCC2)c2c(C#N)c[nH]c2n1` [Example 80, 4-(cyclo(pentylmethyl)amino)-2-((2-methoxy-4-(morpholinosulfonyl)phenyl)amino)-7H-pyrrolo[2,3-d]pyrimidine-5-carbonitrile], the values for the 50% inhibitory concentration (IC50) at human GST-DYRK1A, on human GST-CLK1 and against LRRK2 (G2019S) were 301 to 1000 nM, 301 to 1000 nM and less than 100 nM, respectively. The 50% growth inhibitory concentration (GI50) with MDA-MB-231 cell line is 101 to 300 nM; with SHP-77, 51 to 100 nM.

Consider `COc1cc(S(=O)(=O)N2CCOCC2)ccc1Nc1nc(NC(C)C)c2c(C#N)c[nH]c2n1` [Example 66, 4-(isopropylamino)-2-((2-methoxy-4-(morpholinosulfonyl)phenyl)amino)-7H-pyrrolo[2,3-d]pyrimidine-5-carbonitrile], for which the GI50 in the test on MDA-MB-231 cell line and in the test on SHP-77 was less than 50 nM each time.

For `CC[C@H](C)Nc1nc(Nc2ccc(S(=O)(=O)N3CCOCC3)cc2OC)nc2[nH]cc(C#N)c12` [Example 68, (S)-4-(sec-butylamino)-2-((2-methoxy-4-(morpholinosulfonyl)phenyl)amino)-7H-pyrrolo[2,3-d]pyrimidine-5-carbonitrile], the IC50 at human GST-DYRK1A and against human GST-CLK1 was 301 to 1000 nM each time. Besides, the 50% growth inhibitory concentration (GI50) in the test with MDA-MB-231 cell line and with SHP-77 was 101 to 300 nM each time.

Take `COc1cc(S(=O)(=O)N2CCOCC2)ccc1Nc1nc(N[C@@H]2CCOC2)c2c(C#N)c[nH]c2n1` [Example 74, (R)-2-((2-methoxy-4-(morpholinosulfonyl)phenyl)amino)-4-((tetrahydrofuran-3-yl)amino)-7H-pyrrolo[2,3-d]pyrimidine-5-carbonitrile]: the 50% inhibitory concentration (IC50) at human GST-DYRK1A and against human GST-CLK1 was 301 to 1000 nM in each case. The 50% growth inhibitory concentration (GI50) in the test with MDA-MB-231 cell line and in the test with SHP-77 was 101 to 300 nM in each case.

Take `COc1cc(S(=O)(=O)N2CCC(N3CCOCC3)CC2)ccc1Nc1nc(NCC(C)C)c2c(C#N)c[nH]c2n1` [Example 84, 4-(isobutylamino)-2-((2-methoxy-4-((4-morpholinopiperidin-1-yl)sulfonyl)phenyl)amino)-7H-pyrrolo[2,3-d]pyrimidine-5-carbonitrile]: the IC50 was 301 to 1000 nM on human GST-DYRK1A, 301 to 1000 nM at human GST-CLK1 and less than 100 nM on LRRK2 (G2019S). Further, the 50% growth inhibitory concentration (GI50) with MDA-MB-231 cell line and with SHP-77 was less than 50 nM each time.

Take `COc1cc(S(=O)(=O)N2CCOCC2)ccc1Nc1nc(NCC2CC2)c2c(C(F)(F)F)c[nH]c2n1` [Example 203, N^4-(cyclopropylmethyl)-N^2-(2-methoxy-4-(morpholinosulfonyl)phenyl)-5-(trifluoromethyl)-7H-pyrrolo[2,3-d]pyrimidine-2,4-diamine]: the IC50 at human GST-DYRK1A fell in the range of 301 to 1000 nM; at human GST-CLK1, 101 to 300 nM. Moreover, the GI50 with MDA-MB-231 cell line and in the test on SHP-77 was 301 to 1000 nM each time.

With `COc1cc(S(=O)(=O)N2CCOCC2)ccc1Nc1nc(NCC2CCC2)c2c(C#N)c[nH]c2n1` [Example 79, 4-((cyclobutylmethyl)amino)-2-((2-methoxy-4-(morpholinosulfonyl)phenyl)amino)-7H-pyrrolo[2,3-d]pyrimidine-5-carbonitrile], the half-inhibitory concentration (IC50) on human GST-DYRK1A and against human GST-CLK1 was 301 to 1000 nM each time. Also, the figures for the GI50 in the test on MDA-MB-231 cell line and in the test with SHP-77 were 51 to 100 nM and less than 50 nM, respectively.

For the molecule `CC[C@@H](C)Nc1nc(Nc2ccc(S(=O)(=O)N3CCC(N4CCOCC4)CC3)cc2OC)nc2[nH]cc(C#N)c12` [Example 86, (R)-4-(sec-butylamino)-2-((2-methoxy-4-((4-morpholinopiperidin-1-yl)sulfonyl)phenyl)amino)-7H-pyrrolo[2,3-d]pyrimidine-5-carbonitrile], the IC50 on human GST-DYRK1A and at human GST-CLK1 was 301 to 1000 nM in each case. The GI50 in the test with MDA-MB-231 cell line and with SHP-77 was less than 50 nM each time.

For the molecule `CCCCNc1nc(Nc2ccc(S(=O)(=O)N3CCOCC3)cc2OC)nc2[nH]cc(C(F)(F)F)c12` [Example 207, N^4-butyl-N^2-(2-methoxy-4-(morpholinosulfonyl)phenyl)-5-(trifluoromethyl)-7H-pyrrolo[2,3-d]pyrimidine-2,4-diamine], the concentration for half-maximal inhibition (IC50) on human GST-DYRK1A and at human GST-CLK1 was 301 to 1000 nM in each case. Also, the GI50 in the test with MDA-MB-231 cell line and with SHP-77 was 301 to 1000 nM in each case.

`COc1cc(S(=O)(=O)N2CCOCC2)ccc1Nc1nc(NCC(C)C)c2c(C#N)c[nH]c2n1` [Example 65, 4-(isobutylamino)-2-((2-methoxy-4-(morpholinosulfonyl)phenyl)amino)-7H-pyrrolo[2,3-d]pyrimidine-5-carbonitrile]: the IC50 on human GST-DYRK1A is 301 to 1000 nM; against human GST-CLK1, 301 to 1000 nM; against LRRK2 (G2019S), less than 100 nM. Also, the concentration for 50% growth inhibition (GI50) in the test on MDA-MB-231 cell line and with SHP-77 was less than 50 nM each time.

Turning to `C=CCNc1nc(Nc2ccc(S(=O)(=O)N3CCOCC3)cc2OC)nc2[nH]cc(C#N)c12` [Example 362, 4-(allylamino)-2-((2-methoxy-4-(morpholino-sulfonyl)phenyl)amino)-7H-pyrrolo[2,3-d] pyrimidine-5-carbonitrile], the IC50 was 301 to 1000 nM at human GST-DYRK1A, 301 to 1000 nM against human GST-CLK1, less than 100 nM against LRRK2 and less than 100 nM on LRRK2 (G2019S). Further, the concentration for 50% growth inhibition (GI50) in the test on MDA-MB-231 cell line and in the test with MDA-MB-468 cell line was less than 50 nM in each case.

For `COc1cc(S(=O)(=O)N2CCOCC2)ccc1Nc1nc(NCC2CCCC2)c2c(C(F)(F)F)c[nH]c2n1` [Example 194, N^4-(cyclopentylmethyl)-N^2-(2-methoxy-4-(morpholinosulfonyl)phenyl)-5-(trifluoromethyl)-7H-pyrrolo[2,3-d]pyrimidine-2,4-diamine], the IC50 on human GST-DYRK1A and against human GST-CLK1 was 301 to 1000 nM each time. In addition, the 50% growth inhibitory concentration (GI50) with MDA-MB-231 cell line and in the test with SHP-77 was 301 to 1000 nM each time.
